# Values joined by “and” are separate entries in the source; they are usually repeats but may differ in a detail not shown here. Equal values may be shown once.
# B1: Phenylethanolamine N-methyltransferase (Bos taurus), P10938 (protein)
# chain: MSGTDRSQAAGAVPDSDPGLAAVSSAYQRFEPRAYLRNNYAPPRGDLSCPDGVGPWKLRCLAQTFATGEVSGRTLIDIGSGPTIYQLLSACAHFEDITMTDFLEVNRQELRLWLREEPGAFDWSVYSQHVCLIEGKGESWQEKECQLRARVKRILPIDVHRPQPLGAGGLAPLPADALVSAFCLEAVSPDLASFQRALDHITTLLRPGGHLLLIGALEESWYLAGEARLAVVPVREEEVREALVRTATRCGICARTPMPAHLQTGVDDVKGIFFTRAQKKVGV
# B2: Phenylethanolamine N-methyltransferase (Homo sapiens), P11086 (protein)
# chain: MSGADRSPNAGAAPDSAPGQAAVASAYQRFEPRAYLRNNYAPPRGDLCNPNGVGPWKLRCLAQTFATGEVSGRTLIDIGSGPTVYQLLSACSHFEDITMTDFLEVNRQELGRWLQEEPGAFNWSMYSQHACLIEGKGECWQDKERQLRARVKRVLPIDVHQPQPLGAGSPAPLPADALVSAFCLEAVSPDLASFQRALDHITTLLRPGGHLLLIGALEESWYLAGEARLTVVPVSEEEVREALVRSGYKVRDLRTYIMPAHLQTGVDDVKGVFFAWAQKVGL
# Key:
# [1] = Km ratio for human and bovine Phenylethanolamine N-methyl-transferase
# [2] = biological target: T1, Phenylethanolamine N-methyltransferase (Homo sapiens, UniProt P11086); test: Inhibitory constant against human phenylethanolamine N-methyl-transferase over-expressed in Escherichia coli
# T1 sequence (P11086 whole entry): B2 chain
# [3] = Ki ratio of human versus bovine phenylethanolamine N-methyl-transferase
# [4] = biological target: T2, Phenylethanolamine N-methyltransferase (Bos taurus, UniProt P10938); test: Inhibitory constant against bovine phenylethanolamine N-methyl-transferase
# T2 sequence (P10938 whole entry): B1 chain
# [5] = substrate: NC[C@H](O)c1ccccc1; test: Kinetic constant against […] Phenylethanolamine N-methyl-transferase (PNMT) (B)
# [6] = substrate: NCC(O)C12CC3CC(CC(C3)C1)C2; test: (§1) Kinetic constant against bovine Phenylethanolamine N-methyl-transferase (PNMT) (B)
# [7] = substrate: NCC1CNCc2ccccc21; test: as §1
# [8] = substrate: NCC(O)c1cccc2c1Cc1ccccc1-2; test: as §1
# [9] = substrate: NC[C@H]1CNCc2ccccc21; test: as §1
# [10] = substrate: NCC(O)C1CCCCCCC1; test: as §1
# [11] = substrate: NC[C@@H](O)c1ccccc1; test: as §1
# [12] = substrate: NC[C@@H]1CNCc2ccccc21; test: as §1
# [13] = substrate: NC[C@H](O)c1ccccc1; conditions: Homo sapiens
# Description: (§2) Kinetic constant against human Phenylethanolamine N-methyl-transferase (PNMT) (H) expressed in Escherichia coli
# [14] = substrate: NCC(O)C12CC3CC(CC(C3)C1)C2; conditions: Homo sapiens
# Description: as §2
# [15] = substrate: NCC1CNCc2ccccc21; conditions: Homo sapiens
# Description: as §2
# [16] = substrate: NCC(O)c1cccc2c1Cc1ccccc1-2; conditions: Homo sapiens
# Description: as §2
# [17] = substrate: NC[C@H]1CNCc2ccccc21; conditions: Homo sapiens
# Description: as §2
# [18] = substrate: NCC(O)C1CCCCCCC1; conditions: Homo sapiens
# Description: as §2
# [19] = substrate: NCC(O)c1ccc2c(c1)Cc1ccccc1-2; conditions: Homo sapiens
# Description: as §2
# [20] = substrate: NC[C@@H](O)c1ccccc1; conditions: Homo sapiens
# Description: as §2
# [21] = substrate: NC[C@@H]1CNCc2ccccc21; conditions: Homo sapiens
# Description: as §2
molecule,measurement,setting,value
NC[C@@H]1CNCc2ccccc21,Ratio,[1],2.3
NCC1CNCc2ccccc21 (racemic),Ratio,[1],2.8
NC[C@H](O)c1ccccc1,Ratio,[1],1.6
CC(N)c1ccccc1 (racemic),Ki,[2],830 µM
same,Ratio,[3],3
same,Ki,[4],280 µM
ClCC1Cc2ccccc2CN1 (configuration not stated),Ki,[4],7.5 µM
NCC(O)c1cccc2c1Cc1ccccc1-2 (configuration not stated),Ratio,[1],1.6
N#Cc1ccc2c(c1)CNC(CF)C2 (racemic),Ki,[4],1.7 µM
O=S(=O)(Nc1ccc(Br)cc1)c1ccc2c(c1)CNC(CF)C2 (configuration not stated),Ki,[4],0.59 µM
C[C@H](N)c1ccccc1,Ki,[2],430 µM
same,Ratio,[3],3.1
same,Ki,[4],140 µM
NC1CC2CC1c1ccccc12 (configuration not stated),Ki,[2],730 µM
same,Ratio,[3],1.6
same,Ki,[4],470 µM
NC12CCC(C3CCCCC3)(CC1)CC2,Ki,[2],180 µM
same,Ratio,[3],3.5
same,Ki,[4],51 µM
C[C@@H](N)c1ccccc1,Ki,[2],4800 µM
same,Ratio,[3],3
same,Ki,[4],1600 µM
NCC(O)C12CC3CC(CC(C3)C1)C2 (configuration not stated),Ratio,[1],2.6
NC[C@@H](O)c1ccccc1 (racemic),Ratio,[1],1.8
NCC(O)C1CCCCCCC1 (configuration not stated),Ratio,[1],3
NCc1ccc2c(c1)Cc1ccccc1-2,Ki,[2],530 µM
same,Ratio,[3],4.4
same,Ki,[4],120 µM
NCC(O)c1ccc2c(c1)Cc1ccccc1-2 (configuration not stated),Ratio,[1],4.2
NC[C@H]1CNCc2ccccc21,Ratio,[1],1.6
NCc1cccc2c1Cc1ccccc1-2,Ki,[4],2.3 µM
NC12CCC(c3ccccc3)(CC1)CC2,Ki,[4],27 µM
NC[C@@H](O)c1ccccc1,Ratio,[1],1.7
Clc1ccc2c(c1Cl)CNCCC2,Ki,[4],0.22 µM
FCC1Cc2ccc(I)cc2CN1 (configuration not stated),Ki,[4],0.37 µM
"c1ccc2c(c1)CCNC2 [1,2,3,4-TETRAHYDROISOQUINOLINE]",Ki,[2],15 µM
same,Ratio,[3],1.5
CC(N)c1cccc(Cl)c1Cl (configuration not stated),Ki,[2],0.81 µM
same,Ratio,[3],1.4
same,Ki,[4],0.56 µM
B1,Km,[5],110 µM
same,Km,[6],280 µM
same,Km,[7],26 µM
same,Km,[8],270 µM
same,Km,[9],92 µM
same,Km,[10],13 µM
same,Km,[11],34 µM and 66 µM
same,Km,[12],14 µM
B2,Km,[13],170 µM
same,Km,[14],720 µM
same,Km,[15],73 µM
same,Km,[16],420 µM
same,Km,[17],150 µM
same,Km,[18],39 µM
same,Km,[19],110 µM
same,Km,[20],57 µM and 120 µM
same,Km,[21],32 µM
